± gives the expanded uncertainty stated by the source.
Conditions: Liquid; for vapor or sublimation pressure: Closed cell (Static) method; for mass density: 101.33 kPa, Vibrating tube method

SMILES | vapor or sublimation pressure (293.15 K) [kPa] | mass density (298.15 K) [kg/m3] | vapor or sublimation pressure (298.15 K) [kPa] | vapor or sublimation pressure (303.15 K) [kPa] | vapor or sublimation pressure (308.15 K) [kPa] | vapor or sublimation pressure (313.15 K) [kPa]
c1ccsc1 [thiophene] | 8.19 ± 0.13 | 1058.56 ± 0.12 | 10.4 ± 0.14 | 12.97 ± 0.15 | 16.1 ± 0.17 | 19.4 ± 0.17
c1ccncc1 [pyridine] | 2.1 ± 0.1 | 982.85 ± 0.11 | 2.77 ± 0.11 | 3.62 ± 0.11 | 4.68 ± 0.11 | 6 ± 0.11
CCCC[N+]1(C)CCCC1.N#CC(=C=[N-])C#N [1-butyl-1-methylpyrrolidinium tricyanomethanide] |  | 1006.75 ± 1.1 |  |  |  | 
CCCC[n+]1ccc(C)cc1.N#CC(=C=[N-])C#N [1-butyl-4-methylpyridinium tricyanomethanide] |  | 1036.62 ± 1.2 |  |  |  | 

— the NIST ThermoML archive (doi:10.1016/j.fluid.2015.04.031)
